Experimental data: patent publication US20120128715A1, “METHOD FOR STIMULATING THE IMMUNE RESPONSE OF NEWBORNS” (3M INNOVATIVE PROPERTIES COMPANY, priority 2004, published 2012)
No end group written: not given here. 2,3‑bisacyloxypropyl = 2,3-bisacyloxypropyl group on the Cys sulfur

Key:
TLR8 and TLR7 [1] = assay: TLR agonism and TLR8 selectivity (TLR-mediated activity); type: cell-based; conditions: for concentration inducing TLR8 activity as fraction of that necessary to induce TLR7-mediated activity: TLR8 vs TLR7 selectivity; for TLR8 selectivity: named as examples of TLR8-selective compounds
Source text: The TLR agonism for a particular compound may be assessed in any suitable manner.
Conversely, a compound may be identified as not acting as an agonist of a specified TLR if, when used to perform an assay designed to detect biological activity mediated by the specified TLR, the compound fails to elicit a threshold increase in the biological activity. […] An assay may or may not be performed in conjunction with the appropriate control.
A significant degree may be, for example, inducing activity mediated by one TLR (e.g., TLR8) when administered at half the concentration necessary to induce activity through another TLR (e.g., TLR7).
Assays employing HEK293 cells transfected with an expressible TLR structural gene may use a threshold of, for example, at least a three-fold increase in a TLR-mediated biological activity (e.g., NFκB activation) when the compound is provided at a concentration of, for example, from about 1 μM to about 10 μM for identifying a compound as an agonist of the TLR transfected into the cell. However, different thresholds and/or different concentration ranges may be suitable in certain circumstances. Also, different thresholds may be appropriate for different assays.

TLR8 and TLR7 [2] = conditions: cited from earlier work
[3] = test system: newborn cord blood and adult peripheral blood; assay: TLR ligand-induced TNF-α release in whole blood ex vivo (ELISA); type: cell-based, human; conditions: for ligand-induced TNF-α release in newborn cord blood compared with adult peripheral blood: 5-hour incubation, FIGS. 1A-1E
Description: Peripheral blood was collected from healthy adult volunteers (N=26 individual volunteers; mean age 27 years; 45% male, 55% female) and newborn cord blood (N=63; mean gestational age 39 weeks; 43% male, 57% female) collected immediately after cesarean section delivery (epidural anesthesia) of the placenta or from the umbilical cord immediately after vaginal birth but prior to delivery of the placenta. Births at which antibiotics were administered during labor and/or delivery, and births to HIV-positive mothers were excluded. Human experimentation guidelines of the US Department of Health and Human Services and the Brigham & Women's Hospital were observed, following protocols approved by the local Institutional Review Board. Blood was anticoagulated with 129 mM sodium citrate (Becton Dickinson, Franklin Lakes, N.J.). Hemocytes were collected by centrifugation of blood, followed by washing three times with Hank's Balanced Salt Solution (HBSS) buffer without magnesium or calcium (Gibco BRL, Grand Island, N.Y.) and then resuspension in either autologous or heterologous 100% plasma.
TLR ligands included the synthetic triacylated BLP (tBLP) Pam3-CSSNA (Bachem Bioscience, King of Prussia, Pa.) corresponding to the N-terminus of a BLP from E. coli B/r (Biesert et al. 1987. Eur J Biochem 162:651), the synthetic diacylated BLP macrophage-activating lipopeptide-2 (MALP; S-(2,3-bisAcyloxypropyl)-cysteine-[…] (SEQ ID NO: 5); Alexis Biochemicals, Lausen, Switzerland) from Mycoplasma fermentans (Muhlradt et al. 1997. J Exp Med. 185:1951), ultrapure Re 595 LPS from Salmonella minnesota (List Biologicals, Campbell, Calif.), and the IRM compounds imiquimod (3M Pharmaceuticals, Northridge, Calif.), and resiquimod (InvivoGen, San Diego, Calif.). Specificity of individual TLR ligands for their cognate receptors was confirmed using either NF-kB luciferase reporter and TLR co-transfected Human Embryonic Kidney (HEK) 293 cells or a neutralizing mAb to TLR2 (Levy, O. et al. 2003. Infect Immun 71:6344), as previously described.
After incubation of TLR ligands in blood or monocyte suspensions for 5 hours at 37° C. with end-over-end rotation, samples were diluted with five volumes of ice-cold RPMI medium (Gibco BRL) and centrifuged at 1,000×g at 4° C. for 5 minutes. The supernatant was recovered and stored at −20° C. until assay of TNF-α by ELISA (R&D Systems, Minneapolis, Minn.).
TLR ligand-induced TNF-α release in whole human blood ex vivo as described above in Example 1. The single stranded ribonucleic acid (ssRNA) tested in this example was ssRNA40/LyoVec purchased from InvivoGen (San Diego, Calif.) comprised of single-stranded GU-rich oligonucleotide (5′-GsCsCsCsGsUsCsUsGsUsUsGsUsGsUsGsAsCsUsC-3′ (SEQ ID NO:1); where “s” depicts a phosphothioate linkage complexed with the cationic lipid LyoVec that protects the RNA from degradation and enhance is uptake by immune cells. The guanosine analog loxoribine (TLR7 ligand) was purchased from InvivoGen.

[4] = test system: neonatal myeloid dendritic cells (mDCs); assay: CD40 expression on myeloid dendritic cells in whole blood (flow cytometry); type: cell-based, human; conditions: imiquimod 250 μM, resiquimod 50 μM, 19 hours; FIGS. 15A-15D
Description: After lysis of red blood cells and fixation, mDCs were identified as lint-/HLA-DR+/CD11c+ cells using four color flow cytometry (BD BioSciences) and CD40 was measured using a PE-conjugated mAb.
Newborn cord or adult peripheral blood was incubated with TLR agonists at 37° C. for 19 hours. mDCs were identified by flow cytometry and the level of expression of CD40 was measured using a PE-conjugated mAb.
CD40 expression on mDCs was studied in whole newborn cord blood, in comparison to those of adult peripheral blood, using four-color flow cytometry (BD Biosciences). mDCs were identified as lineage 1-/HLA-DR+/CD11c+ cells. Upregulation of surface CD40 expression was measured using a phycoerythrin-conjugated anti-CD40 mAb.

With CC(C)c1nc2c(N)nc3ccccc3c2s1 [2-(1-methylethyl)thiazolo[4,5-c]quinolin-4-amine] the “concentration inducing TLR8 activity as fraction of that necessary to induce TLR7-mediated activity” value (TLR8 and TLR7 [1]) was “less than one-fifth”.

For CC(C)Cc1nc2c(N)nc3ccccc3c2s1 [2-(2-methylpropyl)thiazolo[4,5-c]quinolin-4-amine], the “concentration inducing TLR8 activity as fraction of that necessary to induce TLR7-mediated activity” value (TLR8 and TLR7 [1]) was “less than one-fifth”.

With CCCCc1nc2c(N)nc3cccnc3c2s1 [2-butylthiazolo[4,5-c][1,5]naphthyridin-4-amine] the TLR8 selectivity (TLR8 and TLR7 [1]) was “TLR8-selective”.

With CCCc1nc2c(N)nc3cccnc3c2s1 [2-propylthiazolo[4,5-c][1,5]naphthyridin-4-amine] the “concentration inducing TLR8 activity as fraction of that necessary to induce TLR7-mediated activity” value (TLR8 and TLR7 [1]) was “less than one-fifth”.

With CCCc1nc2c(N)nc3ccc(N)cc3c2s1 [2-propylthiazolo[4,5-c]quinoline-4,8-diamine] the TLR8 selectivity (TLR8 and TLR7 [1]) was “TLR8-selective”.

In the case of CCCc1nc2c(N)nc3cc(OCCOCCCl)ccc3c2s1 [7-[2-(2-chloroethoxy)ethoxy]-2-propyl[1,3]thiazolo[4,5-c]quinolin-4-amine], the “concentration inducing TLR8 activity as fraction of that necessary to induce TLR7-mediated activity” value (TLR8 and TLR7 [1]) is reported as “less than one-fifth”.

For CCCc1nc2c(N)nc3cc(F)ccc3c2s1 [7-fluoro-2-propylthiazolo[4,5-c]quinolin-4-amine], the “concentration inducing TLR8 activity as fraction of that necessary to induce TLR7-mediated activity” value (TLR8 and TLR7 [1]) was “less than one-fifth”.

In the case of CCCc1nc2c(N)nc3ccc(C)cc3c2s1 [8-methyl-2-propylthiazolo[4,5-c]quinolin-4-amine], the “concentration inducing TLR8 activity as fraction of that necessary to induce TLR7-mediated activity” value (TLR8 and TLR7 [1]) is reported as “less than one-fifth”.

In the case of CCOCc1nc2c(N)nc3c(c2n1CC(C)(C)O)CCCC3 [IRM3, 4-amino-2-(ethoxymethyl)-α,α-dimethyl-6,7,8,9-tetrahydro-1H-imidazo[4,5-c]quinoline-1-ethanol], the “TLR agonism (which TLR)” value (TLR8 and TLR7 [2]) is listed as “agonist of both TLR7 and TLR8”.

In the case of CCCc1nc2c(N)nc3cc(-c4cccc(NS(C)(=O)=O)c4)ccc3c2s1 [N-[3-(4-amino-2-propylthiazolo[4,5-c]quinolin-7-yl)phenyl]methanesulfonamide], the “concentration inducing TLR8 activity as fraction of that necessary to induce TLR7-mediated activity” value (TLR8 and TLR7 [1]) is reported as “less than one-fifth”.

In the case of CCCc1nc2c(N)nc3cc(OCCCNS(=O)(=O)c4cccc5c(N(C)C)cccc45)ccc3c2s1 [N-{3-[(4-amino-2-propyl[1,3]thiazolo[4,5-c]quinolin-7-yl)oxy]propyl}-5-(dimethylamino)naphthalene-1-sulfonamide], the “concentration inducing TLR8 activity as fraction of that necessary to induce TLR7-mediated activity” value (TLR8 and TLR7 [1]) is reported as “one half to about one-fifth”.

With CCCc1nc2c(N)nc3cc(OCCCCCCNS(C)(=O)=O)ccc3c2s1 [N-{6-[(4-amino-2-propyl[1,3]thiazolo[4,5-c]quinolin-7-yl)oxy]hexyl}methanesulfonamide] the “concentration inducing TLR8 activity as fraction of that necessary to induce TLR7-mediated activity” value (TLR8 and TLR7 [1]) was “less than one-fifth”.

In the case of CC(C)Cn1cnc2c(N)nc3ccccc3c21 [imiquimod], the “ligand-induced TNF-α release in newborn cord blood compared with adult peripheral blood” value [3] is given as “impaired”, the “upregulation of CD40 expression in neonatal mDCs” value [4] is given as “does not” and the “TLR agonism (which TLR)” value (TLR8 and TLR7 [2]) is given as “agonist at TLR7 receptors”.

With CCOCc1nc2c(N)nc3ccccc3c2n1CC(C)(C)O [resiquimod] the “potency relative to imiquimod” value (TLR8 and TLR7 [1]; FIG. 11) was about 100 fold.

For CCCc1nc2c(N)nc3cc(OCCNC(=O)OC(C)(C)C)ccc3c2s1 [tert-butyl 2-[(4-amino-2-propyl[1,3]thiazolo[4,5-c]quinolin-7-yl)oxy]ethylcarbamate], the “concentration inducing TLR8 activity as fraction of that necessary to induce TLR7-mediated activity” value (TLR8 and TLR7 [1]) was “one half to about one-fifth”.

In the case of CCCc1nc2c(N)nc3cc(OCCOCCNC(=O)OC(C)(C)C)ccc3c2s1 [tert-butyl 2{-2-[(4-amino-2-propyl[1,3]thiazolo[4,5-c]quinolin-7-yl)oxy]ethoxy}ethylcarbamate], the “concentration inducing TLR8 activity as fraction of that necessary to induce TLR7-mediated activity” value (TLR8 and TLR7 [1]) is reported as “less than one-fifth”.

In the case of CCCc1nc2c(N)nc3cc(OCCCNC(=O)OC(C)(C)C)ccc3c2s1 [tert-butyl 3-[(4-amino-2-propyl[1,3]thiazolo[4,5-c]quinolin-7-yl)oxy]propylcarbamate], the “concentration inducing TLR8 activity as fraction of that necessary to induce TLR7-mediated activity” value (TLR8 and TLR7 [1]) is reported as “less than one-fifth”.

With Pam3-CSSNA [tBLP] the “ligand-induced TNF-α release in newborn cord blood compared with adult peripheral blood” value [3] was “impaired”, the “ligand-induced TNF-α release in cord blood compared with adult controls” value ([3]; cord blood from both Caesarian-section and vaginal deliveries, 5 hours, FIGS. 2A-2C) was “impaired” and the “magnitude and kinetics of ligand-induced TNF-α release in newborn cord vs. adult peripheral blood” value ([3]; time course, FIGS. 3A-3C) was “lower magnitude, but similar kinetics”.

For “S-(2,3-bisAcyloxypropyl)-cysteine-GNNDESNISFKEK (C(2,3‑bisacyloxypropyl)GNNDESNISFKEK; also: acyl groups not given here) [MALP, synthetic diacylated BLP from Mycoplasma fermentans (TLR2/6)]”, the “ligand-induced TNF-α release in newborn cord blood compared with adult peripheral blood” value [3] was “impaired”.
